From US20130274233A1, “MODULATORS OF HEDGEHOG SIGNALING PATHWAY” (priority 2012, published 2013) come the findings set out here.

Structures can show the parent of a compound that is named as a salt.

What all share (format): cell-based
The target in one assay is T1, Smo::EGFP (Homo sapiens, UniProt Q99835).
T1 construct: expressed in transfected cells
The assay is described as follows: High content assay of Shh-induced Smo::EGFP accumulation in the primary cilium (Smo::EGFP/Ivs::tagRFPT NIH/3T3 cells). The following applies: for accumulation of Smo on the PC: in either the presence or absence of Shh; for inhibition of Shh-induced Smo::EGFP accumulation in the PC: in the presence of Shh; for Smo antagonist activity in SAR assays: Smo::EGFP/Ivs::tagRFPT cells primed with compounds for 3 hours before adding Shh. From the text:
(§1) NIH/3T3 cells were maintained in DMEM containing 10% (v/v) calf serum, penicillin, streptomycin, and L-glutamine. HEK293, L, cos 7, and suFU−/− mouse embryonic fibroblast cells were maintained in DMEM containing 10% (v/v) fetal bovine serum, penicillin, streptomycin, and L-glutamine. Smo::EGFP, SmoM2::GFP, and Ivs::tagRFPT were cloned into pBabe to generate retroviral particles for infection. Smo::EGFP/Ivs::tagRFPT and SmoM2::GFP/Ivs::tagRFPT stable cell lines were generated through viral infection of NIH/3T3^12. A ShhLightII Gli reporter cell line was obtained from the American Type Culture Collection (ATCC) and used in luciferase reporter assays to measure Hh pathway activity. The cell line contains a stably integrated Gli-responsive Firefly luciferase reporter and a constitutive Renilla luciferase expression construct^33. Subclones expressing Smo or SmoM2 in ShhLightII cells were used for chemical epistasis analyses.
(§2) Cells were cultured and treated in 384-well imaging plate precoated with poly-D-Lysine (Greiner Bio-one), fixed with 4% paraformaldehyde (Electron Microscopy Sciences), and stained with Hoechst (Invitrogen). Images were collected using Opera High Content Screening System (Perkin Elmer). Activityl)ase (IDBS Inc, Emeryvill, Calif.) and Pipeline Pilot (Accelrys, Inc. San Diego, Calif.) were used for high content screening data management and analysis. Acapella 2.0 software (Evotec Technologies/PerkinElmer) was used to perform multi-parametrical high content image quantification. All the images for comparison were scanned with identical microscopic settings and analyzed with the same input parameters.
(§3) Acapella 2.0 software (Evotec Technologies/PerkinElmer) was used to perform multi-parametric high content image quantification. Our image analysis script used Ivs::tagREPT to first determine the location of the PC and then Smo::EGFP to quantify the level of Smo present in the cilium.
(§4) The inventors used the spot-finding algorithm in the RFP channel to find Ivs-rich spots. Each non-overlapping spot was based on a maximum 8 pixel-radius (when using a 40× objective) around a central intensity peak of 5 pixels. A distance of at least 10 pixels was required between adjacent spot centers. Spot peaks had to exceed thresholds of relative intensity compared to the remaining body of the spot as well as to the entire image. The average, maximum and total RFP intensity of each spot were measured. The spots with sufficiently high absolute maxima to pass the selected threshold were classified as positive spots. To form candidate cilia, the inventors selected the brightest 15% of the pixels in each positive spot and merged those pixels into objects so that the brightest parts of adjacent spots could form single, larger cilia-shaped objects. To qualify the candidate cilia as true Ivs-positive cilia, the width of the objects created from merging the brightest pixels in each spot had to be at least 2 pixels and the length to half-width ratio had to exceed 3. (i.e. a 3-pixel long by 2-pixel wide cilium was the minimum accepted cilium size and the length had to be at least 1.5 fold of the width). The mean GFP intensity within these Ivs-positive cilia was used to estimate the ciliary level of Smo protein. The inventors subtracted the background of the mean GFP intensity in the 3-pixel wide area around each candidate cilium to avoid some false positives. Those Ivs-positive cilia that exceed the final mean GFP intensity threshold set for each experiment were deemed Smo-positive cilia.
Hoechst staining was used to determine the total number of nuclei per well.
Measurements of the geometry of the cilia as well as the total fluorescent intensities of each cilium in the Smo- and Ivs-channels were used to determine if any of the compounds were having unusual effects on cilia size, intensity or frequency of observation or combinations of all three characteristics.

The test system of another assay is Hh pathway activity. The assay is described as follows: Gli-luciferase reporter assay, Shh-induced Hh pathway activity (ShhLightII cells). The following applies: for inhibition of Shh-induced Hh pathway activity, Gli-luciferase reporter: Shh stimulation.
Description: as §1
(§5) Hh activity assays were performed using ShhLightll cells, Smo/Lightll cells, SmoM2/Lightll cells, and suFU−/− mouse embryonic fibroblasts. In the suFU−/− cells, Hh activity was measured after co-transfection with Gli driven firefly luciferase and TK-renilla luciferase reporters^41. Wnt activity was measured in 293 cells co-transfected with Top-flash and TK-renilla luciferase reporters^42. Cells were cultured and treated in 96 well assay plates (Corning) and incubated with Duo-Glo luciferase substrates (Promega) to measure firefly and renilla luciferase activity sequentially using a Top Count NX Microplate Scintillation and Luminescence Counter (Perkin Elmer). The renilla luciferase signal was used to normalize the firefly reporter activity.
(§6) ShhLightII cells and SmoM2/LightII cells were cultured and treated in 96 well assay plates (Corning) and incubated with Duo-Glo luciferase substrates (Promega) to sequentially measure firefly and renilla luciferase activity. Smo, or GFP, expression plasmids were co-transfected into 3T3 cells together with a Gli-responsive firefly reporter and a TK-renilla luciferase reporter contruct to monitor effects of Smo overexpression. Co-transfection of the two reporter constructs was conducted in assays measuring Hh pathway activity in suFU−/− cells. Wnt activity was measured following co-transfection of a Top-flash and renilla luciferase reporter. In both Hh and Wnt activity assays, renilla luciferase reporter activity, or mass of protein, was used to normalize expression values. Luciferase signal was read by TopCount NX Microplate Scintillation and Luminescence Counter (Perkin Elmer). Quantitative PCR probes for Ptch1, Gli1, and β-actin were purchased from Applied Biosystems. Reactions and measurements were performed using on an Applied Biosystems 7900HT at Harvard FAS Center of System Biology. β-actin was used to normalize Ptch1 and Gil1 values.
Background: Reporter assays use an easily measured gene product as a stand-in for the process of interest.

A further assay has as its system Wnt signaling activity. The assay is described as follows: Wnt Top-flash reporter assay. The following applies: with or without Wnt3a. The procedure: as §5, §6
In a further assay the test system is primary cilium (PC). The assay is described as follows: Primary cilium markers in the high content assay (Ivs::tagRFPT, Arl13b, acetylated tubulin). The following applies: Ivs::tagRFPT and other PC markers.
Description: as §3
as §4, with “cilia. […]” for “cilia.”
Cells were cultured and treated in 384-well imaging plate precoated with poly-D-Lysine (Greiner Bio-one), fixed with 4% paraformaldehyde (Electron Microscopy Sciences), and stained with Hoechst (Invitrogen). […] Acapella 2.0 software (Evotec Technologies/PerkinElmer) was used to perform multi-parametric image quantification. All the comparative images were scanned with identical microscopic setting and analyzed with the same input parameters.

For another assay, the system named is SmoM2. The assay is described as follows: Gli-luciferase reporter induced by SmoM2::GFP overexpression (SmoM2/LightII cells). The following applies: SmoM2 overexpression.
Description: as §1, §5, §6

The next assay has as its target T2, SmoM2::GFP (Homo sapiens, UniProt Q99835, W535L).
T2 construct: expressed in transfected cells
The assay is described as follows: Ciliary localization of SmoM2::GFP (3T3/SmoM2::GFP Overexpression/Ivs::tagRFPT). The following applies: SmoM2::EGFP overexpressing cells.
Description: as §1, §2, §3

T1 sequence (Q99835 28-787): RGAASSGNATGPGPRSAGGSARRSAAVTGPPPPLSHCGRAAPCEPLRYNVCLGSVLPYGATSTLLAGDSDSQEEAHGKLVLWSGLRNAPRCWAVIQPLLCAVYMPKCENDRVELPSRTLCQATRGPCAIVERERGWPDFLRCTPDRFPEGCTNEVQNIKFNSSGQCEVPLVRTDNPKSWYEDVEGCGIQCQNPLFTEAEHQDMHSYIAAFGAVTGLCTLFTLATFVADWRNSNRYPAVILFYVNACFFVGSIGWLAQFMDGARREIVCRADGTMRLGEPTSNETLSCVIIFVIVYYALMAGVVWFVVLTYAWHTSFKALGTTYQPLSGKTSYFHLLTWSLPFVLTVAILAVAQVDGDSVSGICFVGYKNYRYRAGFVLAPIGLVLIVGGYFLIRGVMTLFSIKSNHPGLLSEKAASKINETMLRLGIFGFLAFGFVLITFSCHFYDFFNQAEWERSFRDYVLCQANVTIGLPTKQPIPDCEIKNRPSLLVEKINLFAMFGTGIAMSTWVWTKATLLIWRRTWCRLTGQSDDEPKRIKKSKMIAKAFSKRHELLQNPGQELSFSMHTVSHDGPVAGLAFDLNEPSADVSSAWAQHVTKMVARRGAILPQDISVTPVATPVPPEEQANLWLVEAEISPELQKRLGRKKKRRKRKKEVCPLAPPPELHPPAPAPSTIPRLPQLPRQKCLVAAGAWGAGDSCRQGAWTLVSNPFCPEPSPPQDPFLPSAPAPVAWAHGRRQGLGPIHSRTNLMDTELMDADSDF
T2 sequence (Q99835 28-787 W535L): as the sequence (Q99835 28-787) above, with W508L counted along it

On to 4-hydroxytamoxifen, for which the “accumulation of Smo on the PC” value on Smo::EGFP is listed as “did not alter the accumulation of Smo on the PC”. With `Cl.Cl.Clc1ccccc1CNCC1CCC(CNCc2ccccc2Cl)CC1` (centres unmarked) [AY9944], the “inhibition of Shh-induced Hh pathway activity, Gli-luciferase reporter” value (“inhibition … Gli-luciferase reporter” below) in the assay on Hh pathway activity is reported as “inhibited”. Also, the “inhibition of Shh-induced Smo::EGFP accumulation in the PC” value (from here on “inhibition … in the PC”) at Smo::EGFP was “inhibited”. Regarding `CCCC1O[C@@H]2C[C@H]3[C@@H]4CCC5=CC(=O)C=C[C@]5(C)[C@H]4[C@@H](O)C[C@]3(C)[C@]2(C(=O)CO)O1` (some centres unmarked) [Bud, Budesonide], the “effect on Wnt pathway reporter activity” value with Wnt signaling activity is “no effect”.

As to `CC(C)C(=O)OCC(=O)[C@@]12O[C@H](C3CCCCC3)O[C@@H]1C[C@H]1[C@@H]3CCC4=CC(=O)C=C[C@]4(C)[C@H]3[C@@H](O)C[C@@]12C` [Cic, Ciclesonide], the “effect on primary cilium markers / ciliary structure” value in the assay on primary cilium (PC) is “did not disrupt”. For the same molecule, in the assay with SmoM2, the “effect on SmoM2 driven Hh pathway activity, transcriptional reporter” value is on record as “attenuated”. In addition, on SmoM2::GFP, the “effect on SmoM2 ciliary localization” value is listed as “attenuated”. For the same molecule, the “inhibition … Gli-luciferase reporter” value in the assay on Hh pathway activity is on record as “inhibited”. Also, at Smo::EGFP, the “inhibition … in the PC” value is “inhibition of Smo accumulation in the PC”. As for `CC(C)c1ccc(/C=N/NC(=O)c2ccc(O)cc2)cc1` [GSK4716], the IC50 (usually the point on the concentration scale where inhibition reaches its midpoint) in the assay on Hh pathway activity (Mus musculus, Shh Light II, 3T3/Shh-LightII cells, stimulus Shh, read-out: IC50, inhibition of Shh-induced expression of Gli-luciferase reporter) amounted to 10 µM; at Smo::EGFP (3T3/Smo::GFP/Ivs::tagRFPT cells, stimulus Shh, read-out: IC50, inhibition of Shh-induced Smo::GFP ciliary accumulaton) it was 2 µM. With `N#CC(C(=O)c1ccc(Cl)cc1Cl)c1nc2ccccc2c(=O)[nH]1` (centres unmarked) [HPI-4], the “effect on primary cilium markers / ciliary structure” value in the assay on primary cilium (PC) is reported as “decrease in the Ivs::tagRFPT ciliary signal”. The “inhibition … Gli-luciferase reporter” value in the assay on Hh pathway activity is on record as “appear as Hh pathway antagonists”. As for `CC(=O)N1CCN(c2ccc(OCC3COC(Cn4ccnc4)(c4ccc(Cl)cc4Cl)O3)cc2)CC1` (centres unmarked) [KCZ, Ketoconazole], the “inhibition … Gli-luciferase reporter” value in the assay on Hh pathway activity was “inhibited”. For the same molecule, the “inhibition … in the PC” value on Smo::EGFP is listed as “inhibited”. For `O=C(N/N=C/c1ccccc1)c1ccc(O)cc1` [RL-0070462], at Smo::EGFP, the “Smo antagonist activity in SAR assays” value is recorded as “dramatically impaired the activity”. As to `CCN(CC)c1ccc(/C=N/NC(=O)c2ccccc2)cc1` [RL-0070463], the “Smo antagonist activity in SAR assays” value at Smo::EGFP is on record as “moderately decreased the activity”. Regarding `CCN(CC)c1ccc(/C=N/NC(=O)c2ccc(OC)cc2)cc1` [RL-0070464], the “Smo antagonist activity in SAR assays” value at Smo::EGFP is “can be tolerated”. As for `CC/C(=C(/CC)c1ccc(O)cc1)c1ccc(O)cc1` [diethylstilbestrol], the “accumulation of Smo on the PC” value on Smo::EGFP was “did not alter the accumulation of Smo on the PC”.

As to `CC[C@H](c1ccc(O)cc1)[C@@H](CC)c1ccc(O)cc1` [hexestrol], at Smo::EGFP, the “accumulation of Smo on the PC” value was “did not alter the accumulation of Smo on the PC”. `CC/C(=C(\c1ccccc1)c1ccc(OCCN(C)C)cc1)c1ccccc1` [tamoxifen citrate]: the “accumulation of Smo on the PC” value on Smo::EGFP is recorded as “did not alter the accumulation of Smo on the PC”. Consider `CC[C@]1(O)C[C@@H]2CN(CCc3c([nH]c4ccccc34)[C@@](C(=O)OC)(c3cc4c(cc3OC)N(C)[C@H]3[C@@](O)(C(=O)OC)[C@H](OC(C)=O)[C@]5(CC)C=CCN6CC[C@]43[C@@H]65)C2)C1` [vinblastine], for which the “effect on primary cilium markers / ciliary structure” value with primary cilium (PC) was “decrease in the Ivs::tagRFPT ciliary signal”. In addition, the “inhibition … Gli-luciferase reporter” value with Hh pathway activity is on record as “appear as Hh pathway antagonists”.
